Laboratory results as given in patent US7989464B2, “mGluR1 antagonists as therapeutic agents” (Schering Corporation, priority 2004, dated 2011).
Where two headings read alike, the source gives them in different places. One block for each compound: values may come before it.

Molecular target: T1, hmGluR1 receptor (Homo sapiens, UniProt Q13255)
T1 construct: expressed in transfected cells
Experiment: IC50 determination: intracellular calcium mobilization (FLIPR) upon Quisqualate stimulation in CHO cells stably expressing hmGluR1
Type: cell-based
Settings: against Quisqualate 1 μM (EC80)
Procedure, shortened: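 CHO cells stably expressing hmGluR1 were kept overnight in DMEM high glucose with GPT and 1 mM pyruvate, then loaded 2 h with Calcium 3 dye.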

[1] = FLIPR calcium mobilization, read-out: IC50 Class
[2] = class symbols, read-out: mGIuR 1 IC50
[3] = FLIPR calcium mobilization, read-out: mGluR1 IC50

T1 sequence (Q13255 19-1194): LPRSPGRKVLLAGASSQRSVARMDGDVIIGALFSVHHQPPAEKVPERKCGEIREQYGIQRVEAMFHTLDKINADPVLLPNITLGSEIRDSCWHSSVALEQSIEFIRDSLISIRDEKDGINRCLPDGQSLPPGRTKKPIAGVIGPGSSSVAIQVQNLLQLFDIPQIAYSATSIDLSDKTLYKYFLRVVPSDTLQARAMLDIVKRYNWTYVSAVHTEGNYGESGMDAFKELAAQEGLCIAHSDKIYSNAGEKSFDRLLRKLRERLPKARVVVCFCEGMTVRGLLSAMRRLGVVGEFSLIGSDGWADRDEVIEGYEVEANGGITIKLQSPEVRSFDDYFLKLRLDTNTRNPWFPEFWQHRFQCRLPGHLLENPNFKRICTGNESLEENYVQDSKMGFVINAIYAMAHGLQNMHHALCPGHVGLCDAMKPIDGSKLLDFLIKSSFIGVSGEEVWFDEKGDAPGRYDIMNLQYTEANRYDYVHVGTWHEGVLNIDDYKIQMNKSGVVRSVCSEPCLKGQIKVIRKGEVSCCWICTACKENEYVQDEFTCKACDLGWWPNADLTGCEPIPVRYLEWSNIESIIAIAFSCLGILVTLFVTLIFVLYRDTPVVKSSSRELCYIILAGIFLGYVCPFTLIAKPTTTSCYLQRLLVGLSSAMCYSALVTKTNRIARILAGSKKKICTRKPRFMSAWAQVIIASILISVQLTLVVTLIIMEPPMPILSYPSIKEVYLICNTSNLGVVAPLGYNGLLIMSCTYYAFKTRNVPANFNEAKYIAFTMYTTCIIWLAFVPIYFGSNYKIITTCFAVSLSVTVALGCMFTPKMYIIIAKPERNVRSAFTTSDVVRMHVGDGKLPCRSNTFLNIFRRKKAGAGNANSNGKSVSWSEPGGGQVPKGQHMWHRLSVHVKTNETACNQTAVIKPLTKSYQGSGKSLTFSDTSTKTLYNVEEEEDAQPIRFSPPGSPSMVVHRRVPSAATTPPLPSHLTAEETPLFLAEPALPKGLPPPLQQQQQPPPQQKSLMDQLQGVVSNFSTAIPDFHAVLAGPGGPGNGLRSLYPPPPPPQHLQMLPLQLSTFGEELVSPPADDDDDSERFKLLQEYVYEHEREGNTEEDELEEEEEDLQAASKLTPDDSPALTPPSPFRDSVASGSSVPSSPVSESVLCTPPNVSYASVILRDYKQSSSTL

Compound: COc1ccc(Nc2ncnc3sc4c(=O)n(-c5ccc(F)cc5)cnc4c23)cc1 [95GK]
IC50 [1]: > 1000 nM

Compound: O=c1c2sc3ncnc(Nc4ccccc4)c3c2ncn1-c1ccc2ncsc2c1 [95GD]
IC50 [1]: > 1000 nM

Compound: O=c1c2sc3nccc(N4CC[C@@H](O)C4)c3c2ncn1C1CCCCC1 [28M]
IC50 [2]: > 1000 nM

Compound: CN(C)c1ccnc2sc3c(=O)n(Cc4cccs4)cnc3c12 [15I]
IC50 [2]: 150 to 1000 nM

Compound: COc1ccc(-c2c(C(C)=O)c(C)nc3sc4c(=O)n(-c5ccc(C)cc5)cnc4c23)cc1 [P-10]
IC50 [2]: 150 to 1000 nM

Compound: CN(C)c1ncnc2sc3c(=O)n(-c4ccc5ncsc5c4)cnc3c12 [95C]
IC50 [2]: < 50 nM

Compound: O=c1c2sc3nccc(NCC4CC4)c3c2ncn1C1CCCCC1 [28AJ]
IC50 [2]: 150 to 1000 nM

Compound: O=c1c2sc3ncnc(Nc4ccccc4)c3c2ncn1-c1ccc(Cl)cc1 [95FX]
IC50 [1]: 150 to 1000 nM

Compound: O=c1c2sc3nccc(N4CCN(CC5CC5)CC4)c3c2ncn1C1CCCCC1 [61B]
IC50 [2]: > 1000 nM

Compound: CN(C)c1ccnc2sc3c(=O)n(Cc4ccsc4)cnc3c12 [15V]
IC50 [2]: 150 to 1000 nM

Compound: CN(C)c1c([N+](=O)[O-])cnc2sc3c(=O)n(C4CCCCC4)cnc3c12 [compound 51]
IC50 [2]: < 50 nM

Compound: COc1ccccc1CCn1cnc2c(sc3nccc(N(C)C)c32)c1=O [28EM]
IC50 [1]: > 1000 nM

Compound: Cc1noc(-n2cnc3c(sc4nccc(N(C)C)c43)c2=O)c1C [15AD]
IC50 [2]: 50 to 150 nM

Compound: CCOC(=O)c1cnc2sc3c(=O)n(-c4ccc(OC)cc4)cnc3c2c1 [144B]
IC50 [1]: > 1000 nM

Compound: COc1cc(OC)cc(-n2cnc3c(sc4nccc(N(C)C)c43)c2=O)c1 [7AX]
IC50 [2]: < 50 nM

Compound: Cc1ccc(-n2cnc3c(sc4nc(N)nc(N)c43)c2=O)cc1 [71A]
IC50 [2]: < 50 nM

Compound: Cc1ccc(-n2cnc3c(sc4ncc(C(=O)N5CCNCC5)cc43)c2=O)cc1 [205B]
IC50 [1]: > 1000 nM

Compound: Cc1cc(N(C)C)c2c(n1)sc1c(=O)n(C3CCCCC3)cnc12 [7CZ]
IC50 [2]: < 50 nM

Compound: CCN(C)c1ccnc2sc3c(=O)n(-c4ccc5c(c4)OCO5)cnc3c12 [28IE]
IC50 [1]: < 50 nM

Compound: CN(C)c1ccnc2sc3c(=O)n(NC(=O)C4CC4)c(C4CC4)nc3c12 [65C]
IC50 [2]: > 1000 nM

Compound: CN1CCC(n2cnc3c(sc4nccc(N(C)C)c43)c2=O)CC1 [15U]
IC50 [2]: 150 to 1000 nM

Compound: Cc1ccc(-n2cnc3c(sc4ncnc(Nc5ccccc5)c43)c2=O)cc1F [95GB]
IC50 [1]: > 1000 nM

Compound: COc1ccc(-n2cnc3c(sc4ncnc(Nc5cccc(C#N)c5)c43)c2=O)cc1 [190I]
IC50 [1]: 150 to 1000 nM

Compound: CCN(C)c1ccnc2sc3c(=O)n(-c4ccc5c(c4)OCCO5)cnc3c12 [28CG]
IC50 [1]: < 50 nM

Compound: CN(C)c1ccnc2sc3c(=O)n(CC4CCCO4)cnc3c12 (centres unmarked) [15F]
IC50 [2]: 150 to 1000 nM

Compound: O=c1c2sc3ncnc(NC4CC4)c3c2ncn1-c1ccc2ncsc2c1 [95AZ]
IC50 [1]: < 50 nM

Compound: CCNc1ccnc2sc3c(=O)n(-c4ccccc4)c(C)nc3c12 [113F]
IC50 [2]: < 50 nM

Compound: Cc1nc(N)c2c(n1)sc1c(=O)n(-c3ccccc3)cnc12 [95EX]
IC50 [1]: < 50 nM

Compound: Cc1ccc(-n2cnc3c(sc4nc(C(C)C)cc(N(C)C)c43)c2=O)cc1 [87A]
IC50 [2]: 150 to 1000 nM

Compound: CCn1cnc2c(sc3ncnc(Nc4ccc(OC)cc4)c32)c1=O [95GM]
IC50 [1]: > 1000 nM

Compound: COc1ccc(Nc2ncnc3sc4c(=O)n(C)cnc4c23)cc1 [95GN]
IC50 [1]: > 1000 nM

Compound: Cc1ccc(-n2cnc3c(sc4nc(O)cc(N(C)C)c43)c2=O)cc1 [172A]
IC50 [1]: < 50 nM

Compound: CCNc1ccnc2sc3c(=O)n(C4CCCCC4)cnc3c12 [28P]
IC50 [2]: < 50 nM

Compound: Cc1cc(N(C)C)c2c(n1)sc1c(=O)n(-c3ccc(F)cc3)cnc12 [7DC]
IC50 [2]: < 50 nM

Compound: COc1ccc(NC(=O)CSc2nc3c(sc4nc(C)cc(C)c43)c(=O)n2-c2ccc(Cl)cc2)cc1 [P-6]
IC50 [2]: 150 to 1000 nM

Compound: COc1cccc(-n2cnc3c(sc4nc(N5CCOCC5)c5c(c43)CC(C)(C)OC5)c2=O)c1 [P-4]
IC50 [2]: 150 to 1000 nM

Compound: CN(C)c1ccnc2sc3c(=O)n(Cc4ccccc4)cnc3c12 [7C]
IC50 [2]: 50 to 150 nM

Compound: CCN(CC)c1ccnc2sc3c(=O)n(C4CCCCC4)cnc3c12 [28J]
IC50 [2]: 150 to 1000 nM

Compound: CCc1ccc(-n2cnc3c(sc4nc(C)cc(N(C)C)c43)c2=O)cc1 [7CP]
IC50 [2]: 50 to 150 nM

Compound: CN(C)c1cncc2sc3c(=O)n(-c4ccc5scnc5c4)cnc3c12 [37B]
IC50 [2]: 150 to 1000 nM

Compound: O=c1c2sc3ncnc(NCC(F)(F)F)c3c2ncn1-c1ccc(Cl)cc1 [95EF]
IC50 [1]: < 50 nM

Compound: Cc1cc(N(C)C)c2c(n1)sc1c(=O)n(-c3ccc4ncsc4c3)cnc12 [7CO]
IC50 [2]: 50 to 150 nM

Compound: COc1ccc(Nc2ncnc3sc4c(=O)n(-c5ccc(C)cc5)cnc4c23)cc1 [95GJ]
IC50 [1]: 50 to 150 nM

Compound: Cc1ccc(-n2cnc3c(sc4nccc(N(C)C)c43)c2=O)c(F)c1 [7DW]
IC50 [2]: < 50 nM

Compound: Cc1ccc(-n2cnc3c(sc4nc(N5CCOCC5)cc(N(C)C)c43)c2=O)cc1 [59C]
IC50 [2]: > 1000 nM

Compound: CN(C)c1ccnc2c1c1ncn(-c3ccc4ncsc4c3)c(=O)c1n2C [134E]
IC50 [2]: > 1000 nM

Compound: CN(C)c1ncnc2sc3c(=O)n(-c4ccc5occc5c4)cnc3c12 [95AP]
IC50 [1]: < 50 nM | IC50 [3]: 1.6 nM

Compound: COc1ccc(-n2cnc3c(sc4nccc(N(C)C)c43)c2=O)c(C)c1 [7DI]
IC50 [2]: < 50 nM

Compound: O=c1c2sc3nccc(NC4CCCCC4)c3c2ncn1C1CCCCC1 [28C]
IC50 [2]: > 1000 nM

More lines, now with the values ahead:

IC50 [2]: < 50 nM
Compound: CN(C)c1ccnc2sc3c(=O)n(-c4ccccc4)cnc3c12 [7D]

IC50 [1]: < 50 nM
Compound: Cc1ccc(-n2cnc3c(sc4nccc(NC5CC5)c43)c2=O)cc1F [131L]

IC50 [1]: < 50 nM | IC50 [3]: 1.75 nM
Compound: C#CCNc1ccnc2sc3c(=O)n(-c4ccc(Br)cc4)cnc3c12 [28DP]

IC50 [1]: 150 to 1000 nM
Compound: CC(C)(C)Nc1ccnc2sc3c(=O)n(-c4ccc(Cl)cc4)cnc3c12 [28EP]

IC50 [1]: < 50 nM
Compound: C=C(C)CNc1ncnc2sc3c(=O)n(-c4ccc(OC)cc4)cnc3c12 [95FT]

IC50 [1]: 150 to 1000 nM
Compound: C=C(OCC)c1ccnc2sc3c(=O)n(-c4ccc(Cl)cc4)cnc3c12 [183A]

IC50 [1]: 150 to 1000 nM
Compound: CN(C)c1ccnc2sc3c(=O)n(-c4ccncc4)cnc3c12 [28EE]

IC50 [2]: > 1000 nM
Compound: Cc1ccc(-n2cnc3c(sc4nccc(O)c43)c2=O)cc1 [26C]

IC50 [1]: 150 to 1000 nM
Compound: O=c1c2sc3nccc(N4CCCC4)c3c2ncn1-c1ccc(Br)cc1 [28GT]

IC50 [1]: < 50 nM
Compound: COc1ccnc2sc3c(=O)n(-c4ccc(Br)cc4)cnc3c12 [28FR]

IC50 [1]: < 50 nM | IC50 [3]: 2.09 nM
Compound: CCN(C)c1ccnc2sc3c(=O)n(-c4ccc(Cl)cc4)cnc3c12 [28IC]

IC50 [2]: < 50 nM
Compound: CC(=O)Oc1ccc(-n2cnc3c(sc4nccc(N(C)C)c43)c2=O)cc1 [compound 138]

IC50 [1]: 150 to 1000 nM
Compound: Cc1ccc(-n2cnc3c(sc4ncc(Br)c(NCCN)c43)c2=O)cc1 [28FM]

IC50 [2]: < 50 nM
Compound: CCNc1ncnc2sc3c(=O)n(-c4ccc(C)cc4)cnc3c12 [95P]

IC50 [1]: < 50 nM
Compound: CN(CC(O)CO)c1ccnc2sc3c(=O)n(-c4ccc(Br)cc4)cnc3c12 (centres unmarked) [28HU]

IC50 [2]: > 1000 nM
Compound: CC(=O)Nc1ccc(-n2cnc3c(sc4nccc(N(C)C)c43)c2=O)cc1 [7AL]

IC50 [1]: 150 to 1000 nM
Compound: C=CCCOc1ccnc2sc3c(=O)n(-c4ccc(Br)cc4)cnc3c12 [66K]

IC50 [1]: < 50 nM
Compound: COc1ccc(-n2cnc3c(sc4nccc(N(C)CCO)c43)c2=O)cc1 [28HJ]

IC50 [1]: 50 to 150 nM
Compound: CNc1c(C#N)cnc2sc3c(=O)n(-c4ccc(OC)cc4)cnc3c12 [28FQ]

IC50 [2]: < 50 nM
Compound: CN(C)c1ccc(-n2cnc3c(sc4nccc(N(C)C)c43)c2=O)cc1 [7AJ]

IC50 [2]: > 1000 nM
Compound: CC(C)Oc1ccc(-n2cnc3c(sc4nccc(N(C)C)c43)c2=O)cc1 [7AQ]

IC50 [1]: 50 to 150 nM
Compound: C=CCN(C)c1ccnc2sc3c(=O)n(-c4ccc(Br)cc4)cnc3c12 [28EB]

IC50 [2]: 50 to 150 nM
Compound: CN(C)c1ccnc2sc3c(=O)n(-c4cccnc4)cnc3c12 [7O]

IC50 [2]: > 1000 nM
Compound: CN(C)c1ccnc2sc3c(=O)n(-c4ccc(I)cc4)cnc3c12 [7M]

IC50 [3]: 1.47 nM | IC50 [2]: < 50 nM
Compound: C#CCNc1ccnc2sc3c(=O)n(-c4ccc(C)cc4)cnc3c12 [28Z]

IC50 [1]: < 50 nM
Compound: CNc1ccnc2sc3c(=O)n(-c4cccc(F)c4)cnc3c12 [28CO]

IC50 [1]: < 50 nM
Compound: COc1c(Br)cnc2sc3c(=O)n(-c4ccc(Cl)cc4)cnc3c12 [28EH]

IC50 [1]: 150 to 1000 nM
Compound: C#CC(C)Nc1ccnc2sc3c(=O)n(-c4ccc(OC)cc4)cnc3c12 (centres unmarked) [28FA]

IC50 [1]: < 50 nM
Compound: C=C(C)CNc1ncnc2sc3c(=O)n(-c4ccc(C)cc4)cnc3c12 [95EY]

IC50 [2]: > 1000 nM
Compound: Cc1ccc(-n2cnc3c(sc4nccc(OC5CCCC5)c43)c2=O)cc1 [66C]

IC50 [2]: < 50 nM
Compound: CNc1ccnc2sc3c(=O)n(-c4ccc(OC)cc4)cnc3c12 [28I]

IC50 [1]: < 50 nM
Compound: O=c1c2sc3nccc(NCCCO)c3c2ncn1-c1ccc2occc2c1 [28BF]

IC50 [1]: < 50 nM | IC50 [3]: 1.94 nM
Compound: CN(c1ncnc2sc3c(=O)n(-c4ccc(Br)cc4)cnc3c12)C1CC1 [95DV]

IC50 [1]: < 50 nM
Compound: COCCNc1ccnc2sc3c(=O)n(-c4ccc(Cl)cc4)cnc3c12 [28GK]

IC50 [1]: < 50 nM
Compound: C=C(C)CNc1ccnc2sc3c(=O)n(-c4ccc(C)cc4)cnc3c12 [28EW]

IC50 [1]: < 50 nM
Compound: CN(CCO)c1ccnc2sc3c(=O)n(-c4ccc(Br)cc4)cnc3c12 [28HI]

IC50 [1]: < 50 nM
Compound: C#CCNc1ncnc2sc3c(=O)n(-c4ccc5scnc5c4)cnc3c12 [95EL]

IC50 [1]: 150 to 1000 nM
Compound: Cc1ccc(-n2cnc3c(sc4nccc(NC5CCC5)c43)c2=O)cc1 [28DA]

IC50 [1]: < 50 nM
Compound: COc1ccc(-n2cnc3c(sc4nccc(N(C)CC(O)CO)c43)c2=O)cc1 (centres unmarked) [28HV]

IC50 [2]: < 50 nM
Compound: Cc1ccc(-n2cnc3c(sc4nccc(N(C)C)c43)c2=O)cn1 [7DF]

IC50 [2]: < 50 nM
Compound: CN(C)c1ccnc2sc3c(=O)n(-c4ccc5occc5c4)cnc3c12 [7BY]

IC50 [1]: < 50 nM
Compound: Cc1ccc(-n2cnc3c(sc4ncnc(NCCCO)c43)c2=O)cc1 [95DL]

IC50 [2]: > 1000 nM
Compound: CN(C)c1ccnc2sc3c(=O)n(-c4ccc(CC#N)cc4)cnc3c12 [7BC]

IC50 [2]: 150 to 1000 nM
Compound: CN(C)c1ccnc2sc3c(=O)n(-c4ccc5[nH]ncc5c4)cnc3c12 [7AN]

IC50 [1]: < 50 nM
Compound: C=C(Cl)CNc1ccnc2sc3c(=O)n(-c4ccc(C)cc4)cnc3c12 [28EY]

IC50 [1]: < 50 nM
Compound: CN(C)c1ccnc2sc3c(=O)n(-c4cccc(F)c4)cnc3c12 [28CP]

IC50 [1]: 150 to 1000 nM
Compound: C#CCNc1ncnc2sc3c(=O)n(-c4ccc5ncsc5c4)cnc3c12 [95EM]
